Assay results reported in ChEMBL document CHEMBL5325488, “Discovery of SMD-3040 as a Potent and Selective SMARCA2 PROTAC Degrader with Strong in vivo Antitumor Activity” (J Med Chem, 2023).
Calls of active or inactive are those of the source. No cut-off for these calls is given here.

Legend:
[1] = target: T1, von Hippel-Lindau disease tumor suppressor/SWI/SNF-related matrix-associated actin-dependent regulator of chromatin subfamily A member 4 (Homo sapiens, UniProt P51532+P40337); assay: In vivo PROTAC activity at VHL/SMARCA4 in SCID mouse xenografted with human MV4-11 cells assessed as reduction of SMARCA4 level in tumor at 50 mg/kg, iv administered as single dose measured after 2 hrs by Western blotting analysis; type: ADME, organism-based; set-up: scale not given: the % may be the effect or the level left
[2] = system: NCI-H1693; assay: Antiproliferative activity against SMARCA4-deficient human NCI-H1693 cells assessed as cell growth inhibition by measuring maximal efficacy measured after 7 days by WST-8 assay relative to control; type: functional; details: time 7 day
[3] = target: T1, von Hippel-Lindau disease tumor suppressor/SWI/SNF-related matrix-associated actin-dependent regulator of chromatin subfamily A member 4; assay: In vivo PROTAC activity at VHL/SMARCA4 in SCID mouse xenografted with human MV4-11 cells assessed as remaining activity in tumor at 50 mg/kg, iv administered as single dose measured after 6 hrs by Western blotting analysis (reference value: 100 +/- 15 % ); type: ADME, organism-based
[4] = system: NCI-H1792; assay: Antiproliferative activity against human NCI-H1792 cells expressing wild-type SMARCA2 assessed as cell growth inhibition by measuring maximal efficacy measured after 7 days by WST-8 assay relative to control; type: functional; details: time 7 day
[5] = target: T2, von Hippel-Lindau disease tumor suppressor/SWI/SNF-related matrix-associated actin-dependent regulator of chromatin subfamily A member 2 (Homo sapiens, UniProt P51531+P40337); assay: PROTAC activity at VHL/C-terminal HiBiT fused SMARCA2 in human HeLa cells assessed as induction of SMARCA2 degradation pre-treated with 2-(6-amino-5-(1-methyl-1H-pyrazol-4-yl)pyridazin-3-yl)phenol for 2 hrs followed by compound treatment for 24 hrs by Nano-Glo HiBiT analysis; type: cell-based
Target sequence in this assay (P40337 whole entry, looked up, the tested form may be a part): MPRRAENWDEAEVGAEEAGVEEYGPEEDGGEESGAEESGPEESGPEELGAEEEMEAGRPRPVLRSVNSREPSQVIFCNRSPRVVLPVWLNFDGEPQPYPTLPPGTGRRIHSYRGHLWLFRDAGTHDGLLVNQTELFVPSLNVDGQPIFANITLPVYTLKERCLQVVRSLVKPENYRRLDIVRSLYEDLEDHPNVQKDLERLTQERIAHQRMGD
Target sequence in this assay (P51531 whole entry, looked up, the tested form may be a part): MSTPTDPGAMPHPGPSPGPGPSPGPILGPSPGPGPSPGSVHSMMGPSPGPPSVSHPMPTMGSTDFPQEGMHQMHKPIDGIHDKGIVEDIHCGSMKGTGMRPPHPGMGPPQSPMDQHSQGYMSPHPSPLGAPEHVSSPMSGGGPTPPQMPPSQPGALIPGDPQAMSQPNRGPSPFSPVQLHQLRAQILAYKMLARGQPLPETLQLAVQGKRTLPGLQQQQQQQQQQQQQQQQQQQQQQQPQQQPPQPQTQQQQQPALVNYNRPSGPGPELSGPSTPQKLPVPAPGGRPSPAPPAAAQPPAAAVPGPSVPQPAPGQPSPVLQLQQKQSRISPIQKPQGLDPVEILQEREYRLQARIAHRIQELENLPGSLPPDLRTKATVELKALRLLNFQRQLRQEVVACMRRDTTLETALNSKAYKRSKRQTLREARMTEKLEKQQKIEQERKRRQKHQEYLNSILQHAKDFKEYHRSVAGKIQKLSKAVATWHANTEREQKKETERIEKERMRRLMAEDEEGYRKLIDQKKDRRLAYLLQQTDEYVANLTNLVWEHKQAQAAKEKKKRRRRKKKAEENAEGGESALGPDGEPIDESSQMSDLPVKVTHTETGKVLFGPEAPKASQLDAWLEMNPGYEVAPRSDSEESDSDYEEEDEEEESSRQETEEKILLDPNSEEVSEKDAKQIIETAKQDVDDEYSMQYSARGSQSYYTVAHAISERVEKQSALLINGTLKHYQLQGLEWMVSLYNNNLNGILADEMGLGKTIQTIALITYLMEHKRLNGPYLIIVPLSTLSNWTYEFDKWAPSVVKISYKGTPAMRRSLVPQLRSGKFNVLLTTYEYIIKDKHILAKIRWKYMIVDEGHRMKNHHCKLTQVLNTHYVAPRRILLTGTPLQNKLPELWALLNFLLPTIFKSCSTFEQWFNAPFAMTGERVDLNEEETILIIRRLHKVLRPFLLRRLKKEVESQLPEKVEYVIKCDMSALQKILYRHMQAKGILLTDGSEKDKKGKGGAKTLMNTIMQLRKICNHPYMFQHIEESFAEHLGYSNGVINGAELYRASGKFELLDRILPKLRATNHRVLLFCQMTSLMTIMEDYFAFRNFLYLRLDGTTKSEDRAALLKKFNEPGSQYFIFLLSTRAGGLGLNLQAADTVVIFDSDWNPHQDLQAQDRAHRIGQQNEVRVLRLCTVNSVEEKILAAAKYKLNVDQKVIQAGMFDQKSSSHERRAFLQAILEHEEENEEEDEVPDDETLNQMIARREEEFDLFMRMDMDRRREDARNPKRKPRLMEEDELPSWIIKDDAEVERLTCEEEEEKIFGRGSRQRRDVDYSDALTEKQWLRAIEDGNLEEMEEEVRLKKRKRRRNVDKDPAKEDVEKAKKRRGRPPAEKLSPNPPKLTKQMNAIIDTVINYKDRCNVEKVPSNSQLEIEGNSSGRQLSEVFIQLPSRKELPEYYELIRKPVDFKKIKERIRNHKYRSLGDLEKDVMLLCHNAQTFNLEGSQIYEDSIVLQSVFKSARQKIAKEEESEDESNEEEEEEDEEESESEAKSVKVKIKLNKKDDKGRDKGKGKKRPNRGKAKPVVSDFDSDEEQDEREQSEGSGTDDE

[6] = target: T1, von Hippel-Lindau disease tumor suppressor/SWI/SNF-related matrix-associated actin-dependent regulator of chromatin subfamily A member 4; assay: PROTAC activity at VHL/C-terminal HiBiT fused SMARCA4 in human HeLa cells assessed as induction of SMARCA4 degradation incubated for 6 hrs by Nano-Glo HiBiT analysis; type: cell-based
[7] = system: NCI-H647; assay: Antiproliferative activity against human NCI-H647 cells expressing wild-type SMARCA2 assessed as cell growth inhibition by measuring maximal efficacy measured after 7 days by WST-8 assay relative to control; type: functional; details: time 7 day
[8] = target: T2, von Hippel-Lindau disease tumor suppressor/SWI/SNF-related matrix-associated actin-dependent regulator of chromatin subfamily A member 2; assay: PROTAC activity at VHL/C-terminal HiBiT fused SMARCA2 in human HeLa cells assessed as induction of SMARCA2 degradation incubated for 1 to 48 hrs by Nano-Glo HiBiT analysis; type: cell-based; details: dose 0.001-10 µM, time 1-48 hrs
Target sequence in this assay (P40337 whole entry, looked up, the tested form may be a part): as the sequence (P40337 whole entry, looked up, the tested form may be a part) above
Target sequence in this assay (P51531 whole entry, looked up, the tested form may be a part): as the sequence (P51531 whole entry, looked up, the tested form may be a part) above

[9] = system: NCI-H1299; assay: Antiproliferative activity against SMARCA4-deficient human NCI-H1299 cells assessed as cell growth inhibition by measuring maximal efficacy measured after 7 days by WST-8 assay relative to control; type: functional; details: time 7 day
[10] = target: T2, von Hippel-Lindau disease tumor suppressor/SWI/SNF-related matrix-associated actin-dependent regulator of chromatin subfamily A member 2; assay: PROTAC activity at VHL/C-terminal HiBiT fused SMARCA2 in human HeLa cells assessed as induction of SMARCA2 degradation incubated for 3 hrs by Nano-Glo HiBiT analysis; type: cell-based
[11] = system: NCI-H838; assay: Antitumor activity against SMARCA4-deficient human NCI-H838 cells xenografted in SCID mouse assessed as tumor growth inhibition at 50 mg/kg, iv administered twice a week measured after 3 weeks relative to control; type: functional; details: NCI-H838, 504 h, read-out: TGI
[12] = target: T1, von Hippel-Lindau disease tumor suppressor/SWI/SNF-related matrix-associated actin-dependent regulator of chromatin subfamily A member 4; assay: In vivo PROTAC activity at VHL/SMARCA4 in SCID mouse xenografted with human MV4-11 cells assessed as reduction of SMARCA4 level in tumor at 50 mg/kg, iv administered as single dose measured after 6 hrs by Western blotting analysis; type: ADME, organism-based; set-up: scale not given: the % may be the effect or the level left
[13] = target: T2, von Hippel-Lindau disease tumor suppressor/SWI/SNF-related matrix-associated actin-dependent regulator of chromatin subfamily A member 2; assay: PROTAC activity at VHL/C-terminal HiBiT fused SMARCA2 in human HeLa cells assessed as induction of SMARCA2 degradation at 0.0001 to 1 uM incubated for 3 hrs by Nano-Glo HiBiT analysis relative to control; type: cell-based; details: dose 0.0001-1 µM
Target sequence in this assay (P40337 whole entry, looked up, the tested form may be a part): as the sequence (P40337 whole entry, looked up, the tested form may be a part) above
Target sequence in this assay (P51531 whole entry, looked up, the tested form may be a part): as the sequence (P51531 whole entry, looked up, the tested form may be a part) above

[14] = target: T1, von Hippel-Lindau disease tumor suppressor/SWI/SNF-related matrix-associated actin-dependent regulator of chromatin subfamily A member 4; assay: PROTAC activity at VHL/wild-type SMARCA4 in human SK-MEL-28 cells assessed as induction of SMARCA4 degradation at 0.001 to 1000 nM incubated for 24 hrs by Western blotting analysis relative to control; type: cell-based; details: dose 0.001-1000 nM
Target sequence in this assay (P40337 whole entry, looked up): as the sequence (P40337 whole entry, looked up, the tested form may be a part) above
Target sequence in this assay (P51532 whole entry, looked up): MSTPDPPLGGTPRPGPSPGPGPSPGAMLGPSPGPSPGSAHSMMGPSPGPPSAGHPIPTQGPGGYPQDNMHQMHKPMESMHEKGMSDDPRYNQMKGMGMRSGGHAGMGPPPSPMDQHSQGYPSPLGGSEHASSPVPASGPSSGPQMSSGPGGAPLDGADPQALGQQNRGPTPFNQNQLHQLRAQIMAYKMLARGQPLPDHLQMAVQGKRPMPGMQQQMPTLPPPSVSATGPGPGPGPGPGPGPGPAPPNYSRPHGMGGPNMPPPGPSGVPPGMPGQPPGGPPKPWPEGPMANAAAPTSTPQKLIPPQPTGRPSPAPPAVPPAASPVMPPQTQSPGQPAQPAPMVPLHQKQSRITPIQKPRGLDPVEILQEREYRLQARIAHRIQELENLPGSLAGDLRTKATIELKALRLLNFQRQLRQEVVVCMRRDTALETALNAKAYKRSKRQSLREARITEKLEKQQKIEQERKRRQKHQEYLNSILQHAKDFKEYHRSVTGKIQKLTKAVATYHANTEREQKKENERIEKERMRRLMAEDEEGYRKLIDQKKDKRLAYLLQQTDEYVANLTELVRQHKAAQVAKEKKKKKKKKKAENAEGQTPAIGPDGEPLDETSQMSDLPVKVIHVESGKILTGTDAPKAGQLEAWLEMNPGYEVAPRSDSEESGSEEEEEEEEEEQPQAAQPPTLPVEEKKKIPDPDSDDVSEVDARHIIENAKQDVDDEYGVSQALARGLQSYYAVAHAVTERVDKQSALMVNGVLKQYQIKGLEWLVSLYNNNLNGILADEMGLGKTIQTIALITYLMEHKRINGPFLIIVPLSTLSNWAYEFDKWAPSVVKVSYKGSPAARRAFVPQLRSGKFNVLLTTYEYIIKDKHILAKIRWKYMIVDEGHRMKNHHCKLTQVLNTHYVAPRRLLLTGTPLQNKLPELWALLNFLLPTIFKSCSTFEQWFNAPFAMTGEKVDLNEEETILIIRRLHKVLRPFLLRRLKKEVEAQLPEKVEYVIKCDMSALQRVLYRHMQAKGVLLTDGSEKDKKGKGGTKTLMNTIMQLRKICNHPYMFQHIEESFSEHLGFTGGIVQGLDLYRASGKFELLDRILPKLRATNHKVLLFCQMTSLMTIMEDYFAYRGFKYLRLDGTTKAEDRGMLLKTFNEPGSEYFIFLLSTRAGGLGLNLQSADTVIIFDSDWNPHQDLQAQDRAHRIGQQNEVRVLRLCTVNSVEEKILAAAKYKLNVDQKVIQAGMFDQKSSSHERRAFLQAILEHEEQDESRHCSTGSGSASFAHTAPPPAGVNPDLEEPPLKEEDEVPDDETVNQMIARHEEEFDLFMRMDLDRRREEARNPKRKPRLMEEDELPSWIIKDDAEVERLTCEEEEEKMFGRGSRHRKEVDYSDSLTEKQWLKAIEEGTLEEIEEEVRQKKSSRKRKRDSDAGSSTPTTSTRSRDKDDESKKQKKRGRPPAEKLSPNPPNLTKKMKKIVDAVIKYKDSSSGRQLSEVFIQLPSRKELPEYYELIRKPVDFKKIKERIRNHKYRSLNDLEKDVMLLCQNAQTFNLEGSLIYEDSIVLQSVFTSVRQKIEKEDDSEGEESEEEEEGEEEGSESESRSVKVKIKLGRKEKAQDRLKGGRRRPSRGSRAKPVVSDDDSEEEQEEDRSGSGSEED

[15] = system: NCI-H1944; assay: Antiproliferative activity against SMARCA4-deficient human NCI-H1944 cells assessed as cell growth inhibition by measuring maximal efficacy measured after 7 days by WST-8 assay relative to control; type: functional; details: time 7 day
[16] = system: NCI-H838; assay: Antiproliferative activity against SMARCA4-deficient human NCI-H838 cells assessed as cell growth inhibition by measuring maximal efficacy measured after 7 days by WST-8 assay relative to control; type: functional; details: time 7 day
[17] = target: T2, von Hippel-Lindau disease tumor suppressor/SWI/SNF-related matrix-associated actin-dependent regulator of chromatin subfamily A member 2; assay: PROTAC activity at VHL/C-terminal HiBiT fused SMARCA2 in human HeLa cells assessed as induction of SMARCA2 degradation incubated for 1 hr by Nano-Glo HiBiT analysis; type: cell-based
[18] = target: T2, von Hippel-Lindau disease tumor suppressor/SWI/SNF-related matrix-associated actin-dependent regulator of chromatin subfamily A member 2; assay: PROTAC activity at VHL/C-terminal HiBiT fused SMARCA2 in human HeLa cells assessed as induction of SMARCA2 degradation incubated for 24 hrs by Nano-Glo HiBiT analysis; type: cell-based
[19] = target: T1, von Hippel-Lindau disease tumor suppressor/SWI/SNF-related matrix-associated actin-dependent regulator of chromatin subfamily A member 4; assay: PROTAC activity at VHL/C-terminal HiBiT fused SMARCA4 in human HeLa cells assessed as induction of SMARCA4 degradation incubated for 1 hr by Nano-Glo HiBiT analysis; type: cell-based
[20] = target: T2, von Hippel-Lindau disease tumor suppressor/SWI/SNF-related matrix-associated actin-dependent regulator of chromatin subfamily A member 2; assay: In vivo PROTAC activity at VHL/SMARCA2 in SCID mouse xenografted with human MV4-11 cells assessed as remaining activity in tumor at 50 mg/kg, iv administered as single dose measured after 24 hrs by Western blotting analysis (reference value: 100 +/- 15 % ); type: ADME, organism-based
[21] = Drug concentration in SCID mouse plasma xenografted with human MV4-11 cells at 50 mg/kg, iv measured after 24 hrs by LC-MS/MS method; type: ADME, organism-based
[22] = target: T2, von Hippel-Lindau disease tumor suppressor/SWI/SNF-related matrix-associated actin-dependent regulator of chromatin subfamily A member 2; assay: PROTAC activity at VHL/wild-type SMARCA2 in human NCI-H838 cells assessed as induction of SMARCA2 degradation at 0.001 to 1000 nM incubated for 24 hrs by Western blotting analysis relative to control; type: cell-based; details: dose 0.001-1000 nM
Target sequence in this assay (P40337 whole entry, looked up, the tested form may be a part): as the sequence (P40337 whole entry, looked up, the tested form may be a part) above
Target sequence in this assay (P51531 whole entry, looked up, the tested form may be a part): as the sequence (P51531 whole entry, looked up, the tested form may be a part) above

[23] = target: T1, von Hippel-Lindau disease tumor suppressor/SWI/SNF-related matrix-associated actin-dependent regulator of chromatin subfamily A member 4; assay: PROTAC activity at VHL/C-terminal HiBiT fused SMARCA4 in human HeLa cells assessed as induction of SMARCA4 degradation at 0.001 to 10 uM by Nano-Glo HiBiT analysis; type: cell-based; details: dose 0.001-10 µM, time 1-48 hrs, TDE = time-dependent effect
Target sequence in this assay (P40337 whole entry, looked up): as the sequence (P40337 whole entry, looked up, the tested form may be a part) above
Target sequence in this assay (P51532 whole entry, looked up): as the sequence (P51532 whole entry, looked up) above

[24] = target: T1, von Hippel-Lindau disease tumor suppressor/SWI/SNF-related matrix-associated actin-dependent regulator of chromatin subfamily A member 4; assay: PROTAC activity at VHL/C-terminal HiBiT fused SMARCA4 in human HeLa cells assessed as induction of SMARCA4 degradation by measuring maximal efficacy incubated for 24 hrs by Nano-Glo HiBiT analysis relative to control; type: cell-based
Target sequence in this assay (P40337 whole entry, looked up): as the sequence (P40337 whole entry, looked up, the tested form may be a part) above
Target sequence in this assay (P51532 whole entry, looked up): as the sequence (P51532 whole entry, looked up) above

[25] = target: T2, von Hippel-Lindau disease tumor suppressor/SWI/SNF-related matrix-associated actin-dependent regulator of chromatin subfamily A member 2; assay: PROTAC activity at VHL/C-terminal HiBiT fused SMARCA2 in human HeLa cells assessed as induction of SMARCA2 degradation at 0.0001 to 1 uM incubated for 1 hr by Nano-Glo HiBiT analysis relative to control; type: cell-based; details: dose 0.0001-1 µM
Target sequence in this assay (P40337 whole entry, looked up, the tested form may be a part): as the sequence (P40337 whole entry, looked up, the tested form may be a part) above
Target sequence in this assay (P51531 whole entry, looked up, the tested form may be a part): as the sequence (P51531 whole entry, looked up, the tested form may be a part) above

Structure (SMILES): Cc1ncsc1-c1ccc([C@H](C)NC(=O)[C@@H]2C[C@@H](O)CN2C(=O)[C@@H](NC(=O)[C@H]2CC[C@H](CN3CC4(CCC(n5cc(-c6cc(-c7ccccc7O)nnc6N)cn5)CC4)C3)CC2)C(C)(C)C)cc1
- Activity [1]: 7%
- Imax [2]: 79%
- Activity [3]: 83%
- Imax [4]: 25%
- Activity [5]: inactive
- DC50 [6]: > 3.3 µM
- Imax [7]: 74%
- Activity [8]: Dose-Dependent Effect
- Imax [9]: 41%
- DC50 [10]: 63 nM
- inhibition in vivo at 50 mg/kg [11]: 81%
- Activity [12]: 17%
- Emax [13]: 79%
- Emax [14]: 24%
- Imax [15]: 88%
- Imax [16]: 83%
- DC50 [17]: 250 nM
- DC50 [18]: 10 nM
- DC50 [19]: > 3.3 µM
- Activity [20]: 14%
- concentration at 24 h [21]: 218 ng/mL
- Emax [22]: 90%
- Activity [23]: Tde
- Emax [24]: 44%
- Emax [25]: 66%
